Assay type in all cases: physicochemical
Series [1] can be described thus: Hygroscopicity / water content (Karl Fischer analysis). From the text:
The present invention provides (S)-7-[(4,4′-bipiperidin- 1-yl)carbonyl]-2,3,4,5-tetrahydro-4-methyl-3-oxo-1H-1,4-benzodiazepine-2-acetic acid, hydrochloride, formula (I), as a novel material, and, in particular, as a pharmaceutically acceptable form. The material crystallizes preferably with one mole of HCl, and appears to exist in a generally anhydrous form. Although small amounts of water may be detected by Karl Fischer analysis, this is generally less than 1-2% w/w of the drug substance, and it appears to be consistent irrespective of the storage conditions. […] Accordingly, the hydrochloride salt form offers significant advantages for bulk material consistency, handling, and formulation.

Series [2] in a line: Thermal stability of solid samples (3 days at 100° C., hplc). As to conditions: for increase in organic impurities: hplc, by area.
Series [3] can be described thus: Thermal stability over an extended period (shelf life). Conditions: impairs shelf life.
A further series can be described thus: Solubility in water.

These results are taken from patent US6335330B1, “Crystalline pharmaceutical product” (SmithKline Beecham Corporation, priority 1996, dated 2002).

Each structure is given as a SMILES string. Counter-ions that a name gives are not always drawn. Like-named read-outs stand apart in the source and are kept apart here.

`CN1Cc2cc(C(=O)N3CCC(C4CCNCC4)CC3)ccc2N[C@@H](CC(=O)O)C1=O` [Zwitterion, (S)-7-[(4,4′-bipiperidin-1-yl)carbonyl]-2,3,4,5-tetrahydro-4-methyl-3-oxo-1H-1,4-benzodiazepine-2-acetic acid]: in series [1] (equilibrating species), the “water taken up on equilibration” value is “about six”. The “hygroscopicity (in words)” value in series [1] (material prepared according to WO 95/18619) is reported as “hygroscopic”. Besides, in series [1] (t = 0), the “Hygroscopicity (% w/w Karl Fischer analysis)” value was 5.6 % w/w. Besides, in series [1] (t = 21 days), the “Hygroscopicity (% w/w Karl Fischer analysis)” value is given as 20.1 % w/w. Further, in series [2], the “Thermal Stability” value is given as “some degradation,” and the “increase in organic impurities” value was “impurities by 1.3% (hplc,”.

For the compound `CN1Cc2cc(C(=O)N3CCC(C4CCNCC4)CC3)ccc2N[C@@H](CC(=O)O)C1=O` [trifluoroacetate salt], in series [3], the “thermal stability for an extended period” value is “not thermally stable for an extended period”.

For the compound `CN1Cc2cc(C(=O)N3CCC(C4CCNCC4)CC3)ccc2N[C@@H](CC(=O)O)C1=O` [HCl Salt, (S)-7-[(4,4′-bipiperidin-1-yl)carbonyl]-2,3,4,5-tetrahydro-4-methyl-3-oxo-1H-1,4-benzodiazepine-2-acetic acid, hydrochloride], the “water detected by Karl Fischer analysis” value in series [1] (consistent irrespective of the storage conditions) is on record as 1-2 % w/w. In series [1] (t = 0, hydrochloride), the “Hygroscopicity (% w/w Karl Fischer analysis)” value was found to be 0.9 % w/w. Moreover, the “Hygroscopicity (% w/w Karl Fischer analysis)” value in series [1] (t = 21 days, hydrochloride) is on record as 0.8 % w/w. Also, in the series “Solubility in water”, the “dissolution and solubility in water (in words)” value is “enhanced dissolution and solubility in water”; the “solubility in water relative to the zwitterion” value is “about ten”. In series [2] (hydrochloride), the “increase in organic impurities” value is recorded as “no increase” and the “Thermal Stability” value was “Stable”.
